Results on 5 compounds are retold here after patent publication EP1852441B1, “Agents that modulate EPH receptor activity” (The Burnham Institute, priority 2002, dated 2004).

Assay [1] deals with MAP kinase. As to the kind of experiment: MAP kinase phosphorylation in HUVE cells (immunoblot). Particulars: non-serum starved HUVE cells. The assay is classed as cell-based, human. An excerpt:
(§1) Cell lysates were used to immunoprecipitate EphA2 as described above or probed by immunoblotting with anti-phospho-p44/p42 MAPK antibody (Cell Signaling Technology, Beverly, MA) followed by an anti-mouse IgG peroxidase-conjugated antibody (Amersham) and re-probed with an anti-ERK2 antibody (Santa Cruz Biotechnology, Santa Cruz, CA) followed by a secondary anti-rabbit IgG peroxidase-conjugated antibody (Amersham). Erk2 (p42 MAP kinase) is the major phosphorylated form present. EphA2 was immunoprecipitated (IP) and probed by immunoblotting with anti-ghosphotyrosine (PTyr) or anti-EphA2 antibodies.
Background: Immunoblotting shows a protein as a band on a membrane.

Assay [2] relates to EphA2. As to the kind of experiment: EphA2 tyrosine phosphorylation and MAP kinase signaling in HUVE cells. Type of assay: cell-based, human. Particulars: in the absence of ephrin. Here is the method: Ephin-A1 Fc was cross-linked by preincubation with 0.2 µg/ml anti-human fc antibodies for 30 minutes on ice. After stimulation, the cells were lysed in modified RIPA buffer {Ogawa, K. et al. 2000 Oncogene 19: 6043-6052). Cell lysates were immunoprecipitated with 5 µg anti-EphA2 antibody (Upstate, Lake Placid, NY), separated by SDS polyacrylamide gel electrophoresis and probed by immunobloting with peroxidase-conjugated anti-phosphotyrosine antibody (Transduction Laboratories, San Diego, CA) or anti-EphA2 antibody followed by a secondary anti-mouse IgG peroxidase-conjugated antibody (Amersham).
as §1

Assay [3] has as its target T1, endogenous EphA4 (Mus musculus, UniProt Q03137).
T1 construct: tyrosine phosphorylation of endogenous EphA4; from tissue; host or cells: mouse hippocampal slices
As to the kind of experiment: ephrin-A3 Fc induced EphA4 tyrosine phosphorylation in hippocampal slices (immunoblot). Type of assay: cell-based. Particulars: peptide together with ephrin-A3 Fc, micromolar concentrations.

Assay [4] has as its system neural crest cells. The assay is described as follows: neural crest cell migration assay in trunk explants. The assay is classed as cell-based, Chick. Particulars: 24 hours, 13 µM KYL peptide, 10 µg/ml EphA4-Fc. Here is the method:
(§2) In this example to address whether the EphA4-binding peptides can inhibit endogenous ephrin-EphA4 physiological function, a neural crest cell migration assay (McLennan, R. & Krull, C.E. 2002 Gene Expr 10:295-305) was utilized. […] The migration of neural crest cells was determined by staining for HNK-1 for neural crest cells and ephrin-B1 to label the caudal sclerotome. […] Neural crest cells migrated properly into the rostral sclerotome in explants treated with control Fc.

The subject of assay [5] is neural crest cells. As to the kind of experiment: Neural crest cell migration assay in trunk explants. The assay is classed as cell-based. As to conditions: 13 µM peptide, 24 hours, chick trunk explants. As for the experimental part: as §2

T1 sequence (Q03137 20-986): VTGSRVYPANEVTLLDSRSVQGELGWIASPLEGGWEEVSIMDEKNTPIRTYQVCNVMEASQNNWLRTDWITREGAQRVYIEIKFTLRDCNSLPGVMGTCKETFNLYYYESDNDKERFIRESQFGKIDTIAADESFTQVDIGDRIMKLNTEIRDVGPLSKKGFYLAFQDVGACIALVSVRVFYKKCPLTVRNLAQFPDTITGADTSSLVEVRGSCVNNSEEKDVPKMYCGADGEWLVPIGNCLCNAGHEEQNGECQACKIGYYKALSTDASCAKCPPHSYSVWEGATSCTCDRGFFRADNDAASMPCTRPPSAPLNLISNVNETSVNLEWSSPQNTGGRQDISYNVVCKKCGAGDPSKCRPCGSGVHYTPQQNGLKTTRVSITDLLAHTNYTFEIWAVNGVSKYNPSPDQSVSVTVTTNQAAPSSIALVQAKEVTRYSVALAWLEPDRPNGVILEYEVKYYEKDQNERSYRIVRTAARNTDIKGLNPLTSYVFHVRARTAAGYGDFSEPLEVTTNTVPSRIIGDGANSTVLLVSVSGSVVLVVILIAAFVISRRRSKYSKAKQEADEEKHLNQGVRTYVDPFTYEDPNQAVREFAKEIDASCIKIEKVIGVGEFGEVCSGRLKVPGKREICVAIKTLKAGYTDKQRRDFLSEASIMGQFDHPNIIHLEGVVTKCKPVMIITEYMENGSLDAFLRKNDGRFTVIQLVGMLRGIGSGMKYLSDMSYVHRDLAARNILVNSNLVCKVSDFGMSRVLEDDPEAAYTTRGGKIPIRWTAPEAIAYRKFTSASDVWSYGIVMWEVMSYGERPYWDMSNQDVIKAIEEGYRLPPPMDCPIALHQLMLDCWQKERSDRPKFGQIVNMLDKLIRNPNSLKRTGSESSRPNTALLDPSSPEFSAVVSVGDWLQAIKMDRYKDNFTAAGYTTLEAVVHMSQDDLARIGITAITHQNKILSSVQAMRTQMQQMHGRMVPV

Regarding `CSCC[C@H](NC(=O)[C@H](CCSC)NC(=O)[C@@H]1CCCN1C(=O)[C@@H](NC(=O)[C@H](CO)NC(=O)[C@H](CC(=O)O)NC(=O)[C@@H]1CCCN1C(=O)[C@H](Cc1ccc(O)cc1)NC(=O)[C@H](C)NC(=O)[C@H](CO)NC(=O)[C@@H](N)Cc1ccc(O)cc1)C(C)C)C(=O)N[C@@H](CO)C(=O)NCC(=O)N[C@@H](CO)C(=O)NCC(=O)N[C@@H](CO)C(=O)N[C@@H](CCCCNC(=O)CCCC[C@@H]1SC[C@@H]2NC(=O)N[C@@H]21)C(=O)O` [YSA peptide], the MAP kinase activation entry in assay [1] is given as “suppresses MAP kinase activation”. For the compound `CSCC[C@H](NC(=O)[C@H](CCSC)NC(=O)[C@@H]1CCCN1C(=O)[C@@H](NC(=O)[C@H](CO)NC(=O)[C@H](CC(=O)O)NC(=O)[C@@H]1CCCN1C(=O)[C@H](Cc1ccc(O)cc1)NC(=O)[C@H](C)NC(=O)[C@H](CO)NC(=O)[C@@H](N)Cc1ccc(O)cc1)C(C)C)C(=O)N[C@@H](CO)C(=O)O` [YSA peptide], in assay [2], the “functional effect on EphA2 (tyrosine phosphorylation, suppression of MAP kinase)” value was “agonist for EphA2”. KYLPYWPVLSSL: the “ephrin-A3-induced tyrosine phosphorylation of endogenous EphA4” value in assay [3] was “antagonize”; in assay [3] (listed as KYL peptide), “lower concentrations than the APY and VTM peptides”. Also, the “migration of neural crest cells” value in assay [4] is listed as “ectopic migration of neural crest cells into the caudal half-selerotome”. Turning to KYLPYWPVLSSL [KYL peptide], the “migration of neural crest cells” value in assay [5] is on record as “ectopic migration of neural crest cells into the caudal half-selerotome”. Turning to VTMEAINLAFPG, the “ephrin-A3-induced tyrosine phosphorylation of endogenous EphA4” value in assay [3] is given as “antagonize”.
